The values that follow come from patent US20250290928A1, “METHOD, KIT AND DEVICE FOR DETECTING EXTRACELLULAR VESICLES” (priority 2022, published 2025).

Holding throughout (format): biochemical, Human
Assay [1] has as its system ADAM in the MDA-MB-231-derived extracellular vesicles. The experiment in a line: Detection of ADAM activity of MDA-MB-231-derived extracellular vesicles with 96-well plate. The settings on record: Example 39, EV 3.3 μg/mL, reporter 5 μM, buffer (4). The method, then:
(§1) The MMP14 activity was evaluated with a 96-well plate (manufactured by Thermo Fisher Scientific Inc., model number: 137101). A fluorescence intensity was measured with a fluorescence plate reader (Synergy MX, manufactured by BioTek Instruments, Inc.) at […] every 5 min for 1 hour. For measurement wavelengths, an excitation wavelength of 485±20 nm and a fluorescence wavelength of 528±20 nm were used.
In addition, for detection of ADAM activity, 1 mM EPDAB010 or PEPDAB014 was diluted with the buffer (4) to prepare a 10 μM ADAM detection solution. In addition, for detection of Cathepsin D activity, 1 mM CathD was diluted with the buffer (4) to prepare a 10 μM Cathepsin D detection solution.
50 μL of the ADAM detection solution or the Cathepsin D detection solution was added to 50 μL of each of the samples, a reaction was performed at 30° C., and activity was evaluated.

For assay [2] the test system is unchanged. Description: Digital detection of MDA-MB-231-derived extracellular vesicles through ADAM activity in wells. As to conditions: for Extracellular vesicle concentration: at a concentration of x1, 50 fL; for Expected value λ / Number of positives / Positive ratio: Example 40, EV 2 μg/mL, reporter 5 μM, 30° C. The method, then:
The concentration of the solution is 4 μg/mL.
50 μL of the ADAM or Cathepsin D detection solution was added to 50 μL of the sample to provide a reaction solution for wells.

Assay [3] relates to MMP in the MDA-MB-231-derived extracellular vesicles. Description: Evaluation of MMP activity of MDA-MB-231-derived extracellular vesicles with 96-well plate (SensoLyte 520 MMP Substrate Sampler Kit). As to conditions: for Fluorescence change after 1 hour of reaction at 30° C.: Example 34, EV 4 μg/mL, reporter 5 μM, buffer (4); for Fluorescence change after 2 hours of reaction at 30° C.: MP, EV 3.3 μg/mL. The method, then: (§2) 50 μL of the MMP detection solution was added to 50 μL of each of the samples, a reaction was performed at 30° C., and MMP activity was evaluated.
(§3) 50 μL of each of the MMP detection solutions was added to 50 μL of each of the samples, a reaction was performed at 30° C., and MMP activity was evaluated.

Assay [4] relates to MMP in the A549-derived extracellular vesicles. The experiment in a line: Evaluation of MMP activity of A549-derived extracellular vesicles with 96-well plate (SensoLyte 520 MMP Substrate Sampler Kit). The settings on record: Example 34, EV 4 μg/mL, reporter 5 μM, buffer (4). How it is done: as §1, §2
Assay [5] deals with MMP in the MDA-MB-231-derived extracellular vesicles. Description: Digital detection of MDA-MB-231-derived extracellular vesicles through MMP activity in wells (SB substrates). The settings on record: for Expected value λ / Number of positives / Positive ratio: 6 h; for Extracellular vesicle concentration / Expected value λ (×1): Example 35, 6 h; for Extracellular vesicle concentration: at a concentration of x1, 50 fL; for Expected value λ (×1): from power approximation equation. The method, then:
The concentration of the solution is 10 μg/mL. […] The solution was further diluted 2-fold to prepare a standard sample at a concentration of x1/4, further diluted 3-fold to prepare a standard sample at a concentration of x1/12, and further diluted 3-fold to prepare a standard sample at a concentration of x1/36. Thus, the standard samples with four concentrations were prepared.
In addition, 1 mM Alexa Fluor 647 was used as a standard fluorescent substance, and each of the MMP14 detection solutions contained the standard fluorescent substance at a final concentration of 2 μM.
as §3

For assay [6], the system named is MMP in the A549-derived extracellular vesicles. The experiment in a line: Digital detection of A549-derived extracellular vesicles through MMP activity in wells (SB substrates). The settings on record: for Extracellular vesicle concentration: at a concentration of x1, 50 fL; for Expected value λ / Number of positives / Positive ratio: Example 36, EV 5 μg/mL, reporter 5 μM, 30° C. The method, then:
The concentration of the solution is 10 μg/mL.
50 μL of each of the MMP detection solutions was added to 50 μL of the sample to provide a reaction solution for wells.

The mark [7] stands for this setting: 1.25 μM with 1.25 μM Custom #2T.
Setting [8] is: Example 35, 30° C., EV 0 (free of extracellular vesicles, pseudopositive).
Setting [9] is: Example 35, 30° C., EV 1/4 a.u.
The mark [10] stands for this setting: Example 35, 30° C., EV 1/12 a.u.
The mark [11] stands for this setting: Example 35, 30° C., EV 1/36 a.u.
Setting [12] is: Example 35, reporter 5 μM, 30° C., EV 1/2 a.u. (5 μg/mL in reaction solution).

Primed or numbered codes have the meaning given here. *: point of attachment. Dabcyl′ = 4-((4-(dimethylamino)phenyl)azo)benzoic acid, CN(C)c1ccc(/N=N/c2ccc(C(=O)*)cc2)cc1; 5FAM = O=C1OC2(c3ccc(O)cc3Oc3cc(O)ccc32)c2ccc(C(=O)*)cc21

Consider “Dabcyl-EHADLLAVVAK (5FAM)-NH2 ({Dabcyl′}-EHADLLAVVAK(5FAM)-NH2; SMILES CC(C)C[C@H](NC(=O)[C@H](CC(C)C)NC(=O)[C@H](CC(=O)O)NC(=O)[C@H](C)NC(=O)[C@H](Cc1c[nH]cn1)NC(=O)[C@H](CCC(=O)O)NC(=O)c1ccc(/N=N/c2ccc(N(C)C)cc2)cc1)C(=O)N[C@@H](C)C(=O)N[C@H](C(=O)N[C@H](C(=O)N[C@@H](C)C(=O)N[C@@H](CCCCNC(=O)c1ccc2c(c1)C(=O)OC21c2ccc(O)cc2Oc2cc(O)ccc21)C(N)=O)C(C)C)C(C)C) [PEPDAB014]”, for which, in assay [1], the “Fluorescence change after 2 hours of reaction at 30° C.” value (from here on “Fluorescence change after 2 hours”) is listed as 6,939 ΔRFU. In assay [2] (Example 40, 4 hr), the “Expected value λ (×1)” value amounted to 0.2813 and the Extracellular vesicle concentration was 5.625e+09 mL⁻¹. For the same substance, in assay [2] (Example 40, 24 hr), the “Expected value λ (×1)” value worked out at 0.4087 and the Extracellular vesicle concentration is 8.174e+09 mL⁻¹. Besides, in assay [2] (4 hr), the “Expected value λ” value came out at 0.05625, the Number of positives was 1,536 and the Positive ratio came to 0.0547. In assay [2] (24 hr), the “Expected value λ” value came out at 0.08174, the Number of positives was 2,204 and the Positive ratio is listed as 0.07849.

Consider “Dabcyl-SPLAQAVRSSK (5FAM)-NH2 ({Dabcyl′}-SPLAQAVRSSK(5FAM)-NH2; SMILES CC(C)C[C@H](NC(=O)[C@@H]1CCCN1C(=O)[C@H](CO)NC(=O)c1ccc(/N=N/c2ccc(N(C)C)cc2)cc1)C(=O)N[C@@H](C)C(=O)N[C@@H](CCC(N)=O)C(=O)N[C@@H](C)C(=O)N[C@H](C(=O)N[C@@H](CCCNC(=N)N)C(=O)N[C@@H](CO)C(=O)N[C@@H](CO)C(=O)N[C@@H](CCCCNC(=O)c1ccc2c(c1)C(=O)OC21c2ccc(O)cc2Oc2cc(O)ccc21)C(N)=O)C(C)C) [PEPDAB010]”, for which the “Fluorescence change after 2 hours” value in assay [1] is reported as 74,285 ΔRFU. In addition, in assay [2] (Example 40, 4 hr), the “Expected value λ (×1)” value turned out to be 0.4984 and the Extracellular vesicle concentration was determined as 9.968e+09 mL⁻¹. Besides, in assay [2] (Example 40, 24 hr), the “Expected value λ (×1)” value is on record as 0.8509 and the Extracellular vesicle concentration worked out at 1.702e+10 mL⁻¹. In assay [2] (4 hr), the “Expected value λ” value is reported as 0.09968, the Number of positives is listed as 2,664 and the Positive ratio was 0.09487. Besides, in assay [2] (24 hr), the “Expected value λ” value was 0.1702, the Number of positives is given as 4,394 and the Positive ratio is 0.1565.

Consider “QXL520-Pro-Leu-Gly-Met-Trp-Ser-Arg-Lys(5-FAM)-NH2 (QXL520-PLGMWSRK(5FAM)-NH2) [SB6]”, for which the “Fluorescence change after 1 hour of reaction at 30° C.” value in assay [3] was 52,130 ΔRFU; in assay [4], 2,043 ΔRFU. The “Fluorescence change after 2 hours” value in assay [3] (setting [7]) is 37,893 ΔRFU; in assay [3] (5 μM with 5 μM Custom #2T), 57,158 ΔRFU. Further, the “Expected value λ” value worked out at 3.57E−05 in assay [5] (setting [8]); 0.5449 in assay [5] (setting [9]); 0.09454 in assay [5] (setting [10]); 0.04778 in assay [5] (setting [11]); 1.006 in assay [5] (setting [12]); 0.07048 in assay [6] (4 hr). Moreover, in assay [6] (24 hr), the “Expected value λ” value was 0.04908. Besides, the Number of positives in assay [5] (setting [8]) was 1; in assay [5] (setting [9]), 11,797; in assay [5] (setting [10]) it was 2,533; in assay [5] (setting [11]) it was 1,310; in assay [5] (setting [12]), 17,761; in assay [6] (4 hr), 1,911. Moreover, the Number of positives in assay [6] (24 hr) is given as 1,345. Moreover, the Positive ratio in assay [5] (setting [8]) is on record as 3.57E−05; in assay [5] (setting [9]), 0.4201; in assay [5] (setting [10]), 0.09021; in assay [5] (setting [11]) it was 0.04665; in assay [5] (setting [12]), 0.6343; in assay [6] (4 hr), 0.06806. For the same substance, the Positive ratio in assay [6] (24 hr) was found to be 0.0479. Besides, the Extracellular vesicle concentration in assay [5] turned out to be 4.3e+10 mL⁻¹; in assay [6] (Example 36, 4 hr) it was 2.819e+09 mL⁻¹; in assay [6] (Example 36, 24 hr) it was 1.963e+09 mL⁻¹. For the same substance, the “Expected value λ (×1)” value in assay [5] was 2.1589; in assay [6] (Example 36, 4 hr), 0.141; in assay [6] (Example 36, 24 hr) it was 0.09817.

Consider “QXL520-Pro-Tyr-Ala-Tyr-Trp-Met-Arg-Lys(5-FAM)-NH2 (QXL520-PYAYWMRK(5FAM)-NH2) [SB7]”, for which the figures for the “Fluorescence change after 1 hour of reaction at 30° C.” value in assay [3] and in assay [4] were 39,031 ΔRFU and 1,228 ΔRFU, respectively. Also, the “Fluorescence change after 2 hours” value in assay [3] (setting [7]) is reported as 28,167 ΔRFU; in assay [3] (5 μM with 5 μM Custom #2T) it was 32,014 ΔRFU. Moreover, the “Expected value λ” value in assay [5] (setting [8]) stood at 0.000107; in assay [5] (setting [9]), 0.3689; in assay [5] (setting [10]), 0.03574; in assay [5] (setting [11]), 0.01933; in assay [5] (setting [12]), 1.56; in assay [6] (4 hr) it was 0.01417. Besides, the “Expected value λ” value in assay [6] (24 hr) is given as 0.00132. Also, the Number of positives in assay [5] (setting [8]) is reported as 3; in assay [5] (setting [9]) it was 8,663; in assay [5] (setting [10]) it was 986; in assay [5] (setting [11]) it was 536; in assay [5] (setting [12]), 22,181; in assay [6] (4 hr), 395. Besides, the Number of positives in assay [6] (24 hr) stood at 37. Besides, the Positive ratio in assay [5] (setting [8]) is 0.000107; in assay [5] (setting [9]), 0.3085; in assay [5] (setting [10]) it was 0.03511; in assay [5] (setting [11]), 0.01914; in assay [5] (setting [12]), 0.7899; in assay [6] (4 hr), 0.01407. Moreover, the Positive ratio in assay [6] (24 hr) amounted to 0.00132. Also, the Extracellular vesicle concentration is 6.8e+10 mL⁻¹ in assay [5]; 5.667e+08 mL⁻¹ in assay [6] (Example 36, 4 hr); 5.274e+07 mL⁻¹ in assay [6] (Example 36, 24 hr). Moreover, the “Expected value λ (×1)” value in assay [5] stood at 3.4196; in assay [6] (Example 36, 4 hr), 0.02833; in assay [6] (Example 36, 24 hr), 0.00264.
